In ChEMBL document CHEMBL3817842, “Structure-based optimization and derivatization of 2-substituted quinolone-based non-nucleoside HCV NS5B inhibitors with submicromolar cellular replicon potency” (Bioorg Med Chem Lett, 2016):
Calls of active or inactive are those of the source. No cut-off for these calls is given here.

How the values were obtained:
Hepatitis C virus [1] = assay: Antiviral activity against HCV genotype 2a JFH1 infected in human Huh7.5.1 cells at 5 uM incubated for 72 hrs by GFP based J399EAM HCV reporter assay; assay type: functional, Hepacivirus hominis; details: for inhibition at 5 µM: subtype 2a JFH1, Huh-7, 72 h; for inhibition: Hepacivirus hominis, subtype 2a JFH1, Huh-7
[2] = Cytotoxicity against human Huh7.5.1 cells infected with human HCV genotype 2a JFH1 assessed as cell viability at 5 uM incubated for 72 hrs by MTT assay; assay type: cell-based, Huh-7; details: Huh7.5.1 cells infected with HCV genotype 2a JFH1, read-out: Activity
[3] = Selectivity index, ratio of CC50 for human Huh7.5.1 cells infected with human HCV genotype 2a JFH1 to EC50 for HCV genotype 2a JFH1 infected in human Huh7.5.1 cells; design: species or system Huh-7
[4] = Cytotoxicity against human Huh7.5.1 cells infected with human HCV genotype 2a JFH1 incubated for 72 hrs by MTT assay; assay type: cell-based, Huh-7; details: Huh7.5.1 cells infected with HCV genotype 2a JFH1
Hepatitis C virus [5] = assay: Antiviral activity against HCV genotype 2a JFH1 infected in human Huh7.5.1 cells incubated for 72 hrs by GFP based J399EAM HCV reporter assay; assay type: functional, organism-based, Hepacivirus hominis; details: subtype 2a JFH1, Huh-7, 72 h

| Compound | inhibition at 5 µM (Hepatitis C virus [1]) | viability at 72 h, 5 µM [2] | Ratio CC50/EC50 [3] | CC50 at 72 h [4] | EC50 (Hepatitis C virus [5]) | inhibition (Hepatitis C virus [1]) |
| --- | --- | --- | --- | --- | --- | --- |
| O=c1ccn(-c2ccc([N+](=O)[O-])cc2C(F)(F)F)c2ccn(Cc3ccc(Cl)cc3)c(=O)c12 | 58.6% | 88.2% |  |  |  |  |
| O=C(Nc1ccc(-n2ccc(=O)c3c(=O)n(Cc4ccc(Cl)cc4)ccc32)cc1)c1cc(F)ccc1F | 95.7% | 46.1% | 1.4 | 6.4 µM | 4.6 µM |  |
| Nc1ccc(-n2ccc(=O)c3c(=O)n(CC4CC=CC4)ccc32)cc1C(F)(F)F |  | 100% |  |  |  | inactive |
| Nc1ccc(-n2ccc(=O)c3c(=O)n(Cc4ccccc4)ccc32)cc1C(F)(F)F |  | 96.8% |  |  |  | inactive |
| O=C(Nc1ccc(F)cc1)Nc1ccc(-n2ccc(=O)c3c(=O)n(Cc4ccc(Cl)cc4)ccc32)cc1 | 18.8% | 98.4% |  |  |  |  |
| CN1CCN(c2c(F)cc3c(=O)c(C(=O)OCc4ccc(Cl)cc4)c(-c4ccc(F)cc4)n(C4CC4)c3c2F)CC1 |  |  | 5.5 | 13.2 µM | 2.02 µM |  |
| COCc1c(C(=O)OCc2ccc(Cl)cc2)c(=O)c2cc(F)c(N3CCN(Cc4ccccc4)CC3)cc2n1Cc1ccc(Cl)cc1 |  |  | >8.2 | > 40 µM | 4.9 µM |  |
| O=C(Nc1ccc(-n2ccc(=O)c3c(=O)n(Cc4ccc(Cl)cc4)ccc32)cc1)c1ccccn1 | 41.7% | 88.7% |  |  |  |  |
| Cc1c(C(=O)OCc2ccc(Cl)cc2)c(=O)c2cc(F)c(N3CCN(C)CC3)cc2n1Cc1ccc(Cl)cc1 |  |  | 4.6 | 33.1 µM | 7.2 µM |  |
| N#Cc1ccc(-n2ccc(=O)c3c(=O)n(Cc4ccc(Cl)cc4)ccc32)cc1C(F)(F)F |  | 86.4% |  |  |  | inactive |
| Nc1ccc(-n2ccc(=O)c3c(=O)n(Cc4ccc(Cl)cc4)ccc32)cc1C(F)(F)F | 78.9% | 74.3% | 7.2 | 17.9 µM | 2.5 µM |  |
| CCc1c(C(=O)OCc2ccc(Cl)cc2)c(=O)c2cc(F)c(OC)cc2n1Cc1ccc(Cl)cc1 |  |  | 7.2 | 26.8 µM | 3.7 µM |  |
| Nc1ccc(-n2ccc(=O)c3c(=O)n(Cc4ccc(Cl)cc4)ccc32)cc1 | 39.8% | 94.6% |  |  |  |  |
| O=c1ccn(-c2ccc([N+](=O)[O-])c(C(F)(F)F)c2)c2ccn(Cc3ccc(Cl)cc3)c(=O)c12 | 65.7% | 75.6% | 2.2 | 10.6 µM | 4.8 µM |  |
| Cc1ccc(Cn2ccc3c(c(=O)ccn3-c3ccc(N)c(C(F)(F)F)c3)c2=O)c(C)c1 | 51.7% | 99.8% |  |  |  |  |
| O=C(Nc1ccc(-n2ccc(=O)c3c(=O)n(Cc4ccc(Cl)cc4)ccc32)cc1)c1ncccc1Cl | 52.3% | 68.6% |  |  |  |  |
| COCc1c(C(=O)OCc2ccc(Cl)cc2)c(=O)c2cc(F)c(OC)cc2n1Cc1ccc(Cl)cc1 |  |  | >3.6 | > 40 µM | 11.1 µM |  |
| Cc1ccc(Cn2ccc3c(c(=O)ccn3-c3ccc(N)c(C(F)(F)F)c3)c2=O)cc1 | 38.7% | 100% |  |  |  |  |
| Cc1cc(N)ccc1-n1ccc(=O)c2c(=O)n(Cc3ccc(Cl)cc3)ccc21 | 52% | 91.6% |  |  |  |  |
| Cc1cc(NC(=O)c2ccccc2F)ccc1-n1ccc(=O)c2c(=O)n(Cc3ccc(Cl)cc3)ccc21 | 55.2% | 72.6% |  |  |  |  |
| O=C(Nc1ccc(F)cc1)Nc1ccc(-n2ccc(=O)c3c(=O)n(Cc4ccc(Cl)cc4)ccc32)c(C(F)(F)F)c1 | 33.4% | 75.4% |  |  |  |  |
| CN1CCN(c2cc3c(cc2F)c(=O)c(C(=O)OCc2ccc(Cl)cc2)cn3Cc2ccc(Cl)cc2)CC1 |  |  | >9.3 | > 40 µM | 4.3 µM |  |
| COc1cc2c(cc1F)c(=O)c(C(=O)OCc1ccc(Cl)cc1)c(C)n2Cc1ccc(Cl)cc1 |  |  | >16.7 | > 40 µM | 2.4 µM |  |
| Cc1ccc(C(=O)Nc2ccc(-n3ccc(=O)c4c(=O)n(Cc5ccc(Cl)cc5)ccc43)cc2)o1 | 42.6% | 88% |  |  |  |  |
| Nc1ccc(-n2ccc(=O)c3c(=O)n(Cc4ccc(Cl)cc4)ccc32)c(C(F)(F)F)c1 | 43.8% | 84.8% |  |  |  |  |
| Nc1ccc(-n2ccc(=O)c3c(=O)n(CC4CCCCC4)ccc32)cc1C(F)(F)F | 7.7% | 100% |  |  |  |  |
| Nc1ccc(-n2ccc(=O)c3c(=O)n(Cc4ccc(Cl)cc4)ccc32)cc1Cl | 68% | 79.2% | 3 | 19.4 µM | 6.4 µM |  |
| Cc1cc(NC(=O)Nc2ccc(F)cc2)ccc1-n1ccc(=O)c2c(=O)n(Cc3ccc(Cl)cc3)ccc21 | 53.1% | 70.4% |  |  |  |  |
| COCc1c(C(=O)OCc2ccc(Cl)cc2)c(=O)c2cc(F)c(N3CCN(C)CC3)cc2n1Cc1ccc(Cl)cc1 |  |  | 10.8 | 4.3 µM | 0.4 µM |  |
| O=C(Nc1ccc(-n2ccc(=O)c3c(=O)n(Cc4ccc(Cl)cc4)ccc32)c(C(F)(F)F)c1)c1cc(F)ccc1F | 98.2% | 38.4% | 1.1 | 1.5 µM | 1.4 µM |  |
